Measurements: US6143325A, “Nefazodone dosage form” (priority 1999, dated 2000)
Counter-ions that a name gives are not always drawn.

Columns and labels:
[1] = system: cytochrome P450 (CPY) 3A4; conditions: cited from earlier work
[2] = system: rats; conditions: mediated through 5-HT2C or 5HT2B receptors; cited from earlier work
[3] = system: CYP2D6; conditions: cited from earlier work
[4] = system: humans; conditions: in vivo; cited from earlier work
[5] = system: rodents; conditions: in vivo; cited from earlier work
[6] = clinically effective doses of up to 450 mg three times a day; cited from earlier work
[7] = nefazodone and metabolite pharmacokinetics in human volunteers: ER v. IR; conditions: plasma, po
[8] = system: serotonin re-uptake; conditions: in vivo; cited from earlier work
[9] = system: monoamine oxidase; conditions: cited from earlier work
[10] = relative to tricyclic antidepressants; cited from earlier work
[11] = cited from earlier work
[12] = system: serotonin 5-HT2 receptors; conditions: in vivo; cited from earlier work
[13] = cited from earlier work; remark: listed apart in the source
[14] = USP criteria; cited from earlier work

For O=c1[nH]n(CCCN2CCN(c3cccc(Cl)c3)CC2)c(=O)n1CCOc1ccccc1 [Dione], the “metabolism by CYP3A4” value [1] is given as “responsible for the further metabolism”.
In the case of CC(O)c1nn(CCCN2CCN(c3cccc(Cl)c3)CC2)c(=O)n1CCOc1ccccc1 (centres unmarked) [hydroxy-nef, hydroxynefazodone], the “metabolism by CYP3A4” value [1] is listed as “responsible for the further metabolism”.
For Clc1cccc(N2CCNCC2)c1 [mCPP, m-chlorophenylpiperazine], the hypoglycemic effect [2] is listed as “dose-dependent hypoglycemic effect”, the “metabolism by CYP2D6” value [3] is listed as “responsible for the metabolism of mCPP” and the effects in humans [4] is listed as “increase anxiety in humans (and can cause panic attacks), may precipitate migraine attacks in those susceptible to such attacks, can disrupt sleep, be hypophagic in humans also and may have psychotogenic effects”. For the same compound, the effects in rodents [5] was “anxiogenic-like properties, causes hypoactivity, hypophagia, oral dyskinesia, penile erection and hyperthermia”.
In the case of CCc1nn(CCCN2CCN(c3cccc(Cl)c3)CC2)c(=O)n1CCOc1ccccc1 [Nefazodone, 2-[3-[4-(3-chlorophenyl)-1-piperazinyl]-propyl-]5-ethyl-2,4-dihydro-4-(2-phenoxy-ethyl)-3H-1,2,4-triazol-3-one hydrochloride], the tolerability [6] is listed as “well-tolerated”, the Tmax ([7]; 100 mg) is listed as 2 h and the Tmax ([7]; 200 mg) is listed as 5 h. For the same compound, the serotonin re-uptake inhibition [8] was “reversibly inhibits serotonin re-uptake”, the monoamine oxidase inhibition [9] was “does not inhibit monoamine oxidase” and the “inhibition of CYP2D6” value [3] was “weak inhibitor of CYP2D6”. For the same compound, the “anticholinergic, antihistamine, alpha-adrenergic and sedative activity” value [10] was “decreased anticholinergic, antihistamine, alpha-adrenergic and sedative activity”, the “inhibition of CYP3A4” value [1] was “inhibits cytochrome P450 (CPY) 3A4” and the “metabolism by CYP3A4” value [1] was “metabolized by”. For the same compound, the “dissociation constant (pKa)” value [11] was 6.4, the “effect on serotonin 5-HT2 receptors” value [12] was “blocks serotonin 5-HT2 receptors” and the first-pass metabolism ([13]; in vivo) was “significant first-pass metabolism”. For the same compound, the “kinetics (dose proportionality)” value ([13]; plasma concentrations v. dose) was “non-linear kinetics” and the solubility in water [14] was “sparingly soluble”.
